In paper PMC7179119, “A New Positron Emission Tomography Probe for Orexin Receptors Neuroimaging” (Molecules, 2020):
Where two headings read alike, the source gives them in different places.

Tests used:
Assay in all cases: PDSP off-target radioligand binding assay
[1] = target: T1, 5-HT1E (Homo sapiens, UniProt P28566)
T1 construct: NIMH PDSP
In short: (§1)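 Single-point screen, 10 µM test compound, n=4; hot ligand ~Kd; NSB with 10 µM reference; 90 min RT, dark; PEI-soaked filter harvest, cold washes, scintillation count; % inhibition.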

[2] = target: T2, 5-HT3 (Homo sapiens, UniProt P46098)
T2 construct: NIMH PDSP
T2 sequence (P46098 24-478): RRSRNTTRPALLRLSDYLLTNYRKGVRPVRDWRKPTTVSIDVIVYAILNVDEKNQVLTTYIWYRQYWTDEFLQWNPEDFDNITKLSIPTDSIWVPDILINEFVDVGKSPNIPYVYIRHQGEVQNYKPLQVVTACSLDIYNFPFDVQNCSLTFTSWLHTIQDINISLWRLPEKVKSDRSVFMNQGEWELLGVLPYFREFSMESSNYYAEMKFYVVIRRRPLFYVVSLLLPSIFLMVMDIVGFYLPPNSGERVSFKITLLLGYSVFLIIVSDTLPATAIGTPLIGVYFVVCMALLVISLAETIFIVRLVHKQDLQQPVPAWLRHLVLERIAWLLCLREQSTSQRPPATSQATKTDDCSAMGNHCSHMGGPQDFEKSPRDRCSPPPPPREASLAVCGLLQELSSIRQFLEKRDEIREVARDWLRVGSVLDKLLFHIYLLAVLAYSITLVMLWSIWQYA
In short: as §1

[3] = target: T3, 5-HT7A (Homo sapiens, UniProt P34969)
T3 construct: NIMH PDSP
T3 sequence (P34969 1-445 isoform P34969-2): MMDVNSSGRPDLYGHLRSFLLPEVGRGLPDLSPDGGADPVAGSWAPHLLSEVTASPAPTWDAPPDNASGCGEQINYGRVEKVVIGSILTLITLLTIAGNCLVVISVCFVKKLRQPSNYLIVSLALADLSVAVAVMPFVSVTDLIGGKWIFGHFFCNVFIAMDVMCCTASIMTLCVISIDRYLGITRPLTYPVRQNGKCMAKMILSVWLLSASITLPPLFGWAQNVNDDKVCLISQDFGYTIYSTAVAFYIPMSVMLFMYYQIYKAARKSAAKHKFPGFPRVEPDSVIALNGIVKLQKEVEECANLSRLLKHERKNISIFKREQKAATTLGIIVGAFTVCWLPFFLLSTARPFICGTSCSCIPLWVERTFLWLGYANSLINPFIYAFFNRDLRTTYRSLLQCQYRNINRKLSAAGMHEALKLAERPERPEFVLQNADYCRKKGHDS
In short: as §1

[4] = target: T4, Alpha1B (Homo sapiens, UniProt P35368)
T4 construct: NIMH PDSP
T4 sequence (P35368 1-520): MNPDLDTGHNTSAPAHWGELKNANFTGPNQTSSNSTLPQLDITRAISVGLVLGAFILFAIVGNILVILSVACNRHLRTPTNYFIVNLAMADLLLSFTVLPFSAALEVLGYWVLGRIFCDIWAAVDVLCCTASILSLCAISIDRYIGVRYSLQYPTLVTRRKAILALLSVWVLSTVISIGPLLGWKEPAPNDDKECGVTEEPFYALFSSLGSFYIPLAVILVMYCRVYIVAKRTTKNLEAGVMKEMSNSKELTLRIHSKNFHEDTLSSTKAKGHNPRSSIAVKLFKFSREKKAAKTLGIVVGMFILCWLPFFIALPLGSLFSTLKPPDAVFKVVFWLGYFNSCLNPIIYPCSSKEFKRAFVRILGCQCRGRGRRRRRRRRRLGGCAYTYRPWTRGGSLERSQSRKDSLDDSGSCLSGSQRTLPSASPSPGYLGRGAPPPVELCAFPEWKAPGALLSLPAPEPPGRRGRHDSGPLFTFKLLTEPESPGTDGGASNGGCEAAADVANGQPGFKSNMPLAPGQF
In short: as §1

[5] = target: T5, Alpha2B (Homo sapiens, UniProt P18089)
T5 construct: NIMH PDSP
T5 sequence (P18089 1-450): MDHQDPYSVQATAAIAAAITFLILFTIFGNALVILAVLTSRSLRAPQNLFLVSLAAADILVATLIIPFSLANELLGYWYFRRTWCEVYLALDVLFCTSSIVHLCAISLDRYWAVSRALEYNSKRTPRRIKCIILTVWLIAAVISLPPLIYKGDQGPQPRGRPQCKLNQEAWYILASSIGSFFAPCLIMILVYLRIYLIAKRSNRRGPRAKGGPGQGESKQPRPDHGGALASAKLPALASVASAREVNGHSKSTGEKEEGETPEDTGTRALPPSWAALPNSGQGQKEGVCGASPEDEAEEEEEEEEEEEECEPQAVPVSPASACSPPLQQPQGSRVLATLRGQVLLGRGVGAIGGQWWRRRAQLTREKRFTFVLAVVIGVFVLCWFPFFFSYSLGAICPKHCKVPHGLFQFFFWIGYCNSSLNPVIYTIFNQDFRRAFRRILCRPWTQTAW
In short: as §1

[6] = target: T6, Beta2 (Homo sapiens, UniProt P07550)
T6 construct: NIMH PDSP
T6 sequence (P07550 whole entry): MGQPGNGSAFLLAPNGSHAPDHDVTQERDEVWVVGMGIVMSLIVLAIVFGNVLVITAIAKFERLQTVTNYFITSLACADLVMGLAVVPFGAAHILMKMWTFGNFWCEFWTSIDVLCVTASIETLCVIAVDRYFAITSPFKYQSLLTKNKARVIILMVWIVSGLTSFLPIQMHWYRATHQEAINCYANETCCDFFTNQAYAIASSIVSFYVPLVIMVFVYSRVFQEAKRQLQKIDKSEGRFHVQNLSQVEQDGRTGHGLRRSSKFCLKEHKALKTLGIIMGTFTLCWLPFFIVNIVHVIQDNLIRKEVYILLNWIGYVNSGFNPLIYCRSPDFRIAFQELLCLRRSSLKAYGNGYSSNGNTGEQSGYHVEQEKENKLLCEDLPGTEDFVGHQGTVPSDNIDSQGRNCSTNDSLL
In short: as §1

[7] = target: T7, D2 (Homo sapiens, UniProt P14416)
T7 construct: NIMH PDSP
T7 sequence (P14416 whole entry): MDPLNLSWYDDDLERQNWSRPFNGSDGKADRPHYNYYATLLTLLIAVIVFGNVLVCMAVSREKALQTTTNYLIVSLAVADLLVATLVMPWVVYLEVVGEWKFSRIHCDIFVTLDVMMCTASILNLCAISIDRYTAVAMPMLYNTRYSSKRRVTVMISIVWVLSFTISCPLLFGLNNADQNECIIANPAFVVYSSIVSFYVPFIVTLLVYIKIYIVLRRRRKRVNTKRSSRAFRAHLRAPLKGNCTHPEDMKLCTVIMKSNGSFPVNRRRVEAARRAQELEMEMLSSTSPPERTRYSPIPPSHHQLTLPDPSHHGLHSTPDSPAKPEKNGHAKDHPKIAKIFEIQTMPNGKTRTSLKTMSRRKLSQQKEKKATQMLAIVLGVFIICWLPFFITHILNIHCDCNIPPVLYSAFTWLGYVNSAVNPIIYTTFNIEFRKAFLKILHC
In short: as §1

[8] = target: DOR (Homo sapiens, UniProt P41143)
DOR, sequence (P41143 whole entry): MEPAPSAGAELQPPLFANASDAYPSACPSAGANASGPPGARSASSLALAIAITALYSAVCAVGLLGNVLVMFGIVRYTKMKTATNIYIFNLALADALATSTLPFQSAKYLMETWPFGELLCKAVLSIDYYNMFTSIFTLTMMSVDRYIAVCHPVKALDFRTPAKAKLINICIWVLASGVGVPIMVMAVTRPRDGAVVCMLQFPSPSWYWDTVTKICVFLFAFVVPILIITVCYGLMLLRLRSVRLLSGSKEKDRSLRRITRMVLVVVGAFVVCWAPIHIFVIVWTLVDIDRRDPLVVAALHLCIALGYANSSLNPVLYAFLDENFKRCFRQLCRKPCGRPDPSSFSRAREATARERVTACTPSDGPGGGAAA
In short: as §1

[9] = target: MOR (Homo sapiens, UniProt P35372)
MOR, sequence (P35372 whole entry): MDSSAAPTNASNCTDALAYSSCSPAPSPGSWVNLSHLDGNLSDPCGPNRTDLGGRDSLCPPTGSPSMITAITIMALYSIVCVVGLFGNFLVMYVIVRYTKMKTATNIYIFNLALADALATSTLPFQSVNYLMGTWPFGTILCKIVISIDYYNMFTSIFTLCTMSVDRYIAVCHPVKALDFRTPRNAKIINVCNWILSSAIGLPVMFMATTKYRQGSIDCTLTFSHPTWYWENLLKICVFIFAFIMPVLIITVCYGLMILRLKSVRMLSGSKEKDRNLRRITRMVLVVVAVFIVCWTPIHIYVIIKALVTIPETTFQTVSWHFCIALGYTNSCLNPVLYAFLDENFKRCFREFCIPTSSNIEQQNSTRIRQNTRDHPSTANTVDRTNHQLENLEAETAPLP
In short: as §1

[10] = quadruplicate, read-out: Mean±SD % inhibition
[11] = replicate 1, read-out: % Inhibition 1
[12] = replicate 2, read-out: % Inhibition 2
[13] = replicate 3, read-out: % Inhibition 3
[14] = replicate 4, read-out: % Inhibition 4

T1 sequence (P28566 whole entry, species assumed): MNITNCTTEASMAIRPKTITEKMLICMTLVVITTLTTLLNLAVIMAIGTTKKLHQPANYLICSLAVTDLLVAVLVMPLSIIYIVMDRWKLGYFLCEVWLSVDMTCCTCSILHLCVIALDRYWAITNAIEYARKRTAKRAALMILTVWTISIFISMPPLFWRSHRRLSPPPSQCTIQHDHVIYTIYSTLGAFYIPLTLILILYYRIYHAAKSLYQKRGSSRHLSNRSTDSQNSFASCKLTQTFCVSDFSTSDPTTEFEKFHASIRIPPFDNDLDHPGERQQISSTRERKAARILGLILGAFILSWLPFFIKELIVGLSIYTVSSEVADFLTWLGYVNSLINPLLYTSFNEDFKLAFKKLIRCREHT

Which inhibition at 10 µM [1, 10] does the source give for `COc1ccnc(N2CCC3(CCCN(Cc4cn(C)c5ccccc45)C3=O)CC2)n1` [CW24] here?
Its inhibition at 10 µM is 18.8 ± 12.2%.

And the inhibition at 10 µM [1, 11]?
The inhibition at 10 µM was 31.3%.

And the inhibition at 10 µM [1, 12]?
The inhibition at 10 µM was 19.5%.

What about the inhibition at 10 µM [1, 13] of the same compound?
The inhibition at 10 µM was 22.5%.

What about the inhibition at 10 µM [1, 14] of the same compound?
The inhibition at 10 µM was 2.07%.

And the inhibition at 10 µM [2, 10]?
The inhibition at 10 µM was -4 ± 15.6%.

And the inhibition at 10 µM [2, 11]?
Its inhibition at 10 µM is -7.18%.

And the inhibition at 10 µM [2, 12]?
Its inhibition at 10 µM is 2.23%.

What about the inhibition at 10 µM [2, 13] of the same compound?
The inhibition at 10 µM was -23.9%.

And the inhibition at 10 µM [2, 14]?
The inhibition at 10 µM was 12.9%.

And the inhibition at 10 µM [3, 10]?
Its inhibition at 10 µM is -54.8 ± 29.3%.

And the inhibition at 10 µM [3, 11]?
Its inhibition at 10 µM is -92.7%.

And the inhibition at 10 µM [3, 12]?
Its inhibition at 10 µM is -50.8%.

What about the inhibition at 10 µM [3, 13] of the same compound?
Its inhibition at 10 µM is -54.3%.

And the inhibition at 10 µM [3, 14]?
Its inhibition at 10 µM is -21.2%.

What about the inhibition at 10 µM [4, 10] of the same compound?
Its inhibition at 10 µM is -20.7 ± 12.8%.

And the inhibition at 10 µM [4, 11]?
Its inhibition at 10 µM is -6.11%.

And the inhibition at 10 µM [4, 12]?
The inhibition at 10 µM was -16.3%.

And the inhibition at 10 µM [4, 13]?
Its inhibition at 10 µM is -36.7%.

What about the inhibition at 10 µM [4, 14] of the same compound?
The inhibition at 10 µM was -23.6%.

And the inhibition at 10 µM [5, 10]?
Its inhibition at 10 µM is -9.5 ± 13.4%.

And the inhibition at 10 µM [5, 11]?
Its inhibition at 10 µM is -8.15%.

What about the inhibition at 10 µM [5, 12] of the same compound?
Its inhibition at 10 µM is -23.6%.

What about the inhibition at 10 µM [5, 13] of the same compound?
The inhibition at 10 µM was -14.5%.

What about the inhibition at 10 µM [5, 14] of the same compound?
The inhibition at 10 µM was 8.29%.

What about the inhibition at 10 µM [6, 10] of the same compound?
Its inhibition at 10 µM is -10.5 ± 5.4%.

And the inhibition at 10 µM [6, 11]?
Its inhibition at 10 µM is -12.2%.

And the inhibition at 10 µM [6, 12]?
Its inhibition at 10 µM is -5.09%.

And the inhibition at 10 µM [6, 13]?
The inhibition at 10 µM was -7.41%.

And the inhibition at 10 µM [6, 14]?
Its inhibition at 10 µM is -17.3%.

What about the inhibition at 10 µM [7, 10] of the same compound?
The inhibition at 10 µM was -1.7 ± 19.3%.

What about the inhibition at 10 µM [7, 11] of the same compound?
Its inhibition at 10 µM is -8.12%.

And the inhibition at 10 µM [7, 12]?
Its inhibition at 10 µM is 21.4%.

What about the inhibition at 10 µM [7, 13] of the same compound?
The inhibition at 10 µM was -24.2%.

And the inhibition at 10 µM [7, 14]?
Its inhibition at 10 µM is 4.13%.

What about the inhibition at 10 µM [8, 10] of the same compound?
The inhibition at 10 µM was 13.9 ± 19.1%.

And the inhibition at 10 µM [8, 11]?
The inhibition at 10 µM was 41%.

And the inhibition at 10 µM [8, 12]?
Its inhibition at 10 µM is 8.06%.

And the inhibition at 10 µM [8, 13]?
Its inhibition at 10 µM is 10.6%.

What about the inhibition at 10 µM [8, 14] of the same compound?
Its inhibition at 10 µM is -3.98%.

What about the inhibition at 10 µM [9, 10] of the same compound?
The inhibition at 10 µM was -2.04 ± 10.4%.

And the inhibition at 10 µM [9, 11]?
The inhibition at 10 µM was 5.06%.

And the inhibition at 10 µM [9, 12]?
Its inhibition at 10 µM is -11.3%.

And the inhibition at 10 µM [9, 13]?
The inhibition at 10 µM was 8.74%.

And the inhibition at 10 µM [9, 14]?
Its inhibition at 10 µM is -10.6%.
